Laboratory results as given in PubChem BioAssay (NCI).
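Five concentrations, 48 hours, 96-well plates. GI50 marks 50% less growth. At the TGI there is no net growth.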

What was measured:
Test in all cases: NCI-60 cell line screen, 48 h
PC-3 prostate = tested on: PC-3 prostate
HS 578T breast = tested on: HS 578T breast
SK-MEL-2 melanoma = tested on: SK-MEL-2 melanoma
RXF 393 renal = tested on: RXF 393 renal
SF-539 CNS = tested on: SF-539 CNS
UACC-257 melanoma = tested on: UACC-257 melanoma
ACHN renal = tested on: ACHN renal
BT-549 breast = tested on: BT-549 breast

SMILES | TGI (PC-3 prostate) | TGI (HS 578T breast) | TGI (SK-MEL-2 melanoma) | TGI (RXF 393 renal) | TGI (SF-539 CNS) | TGI (UACC-257 melanoma) | TGI (ACHN renal) | GI50 (PC-3 prostate) | GI50 (HS 578T breast) | GI50 (SK-MEL-2 melanoma) | GI50 (RXF 393 renal) | GI50 (SF-539 CNS) | GI50 (UACC-257 melanoma) | GI50 (ACHN renal) | TGI (BT-549 breast)
C#CCNC(Cc1cnc[nH]1)C(=O)O (stereo not given) | > 100 µM | > 100 µM | > 100 µM | > 100 µM | > 100 µM | > 100 µM | > 100 µM |  |  |  |  |  |  |  | 
N#Cc1c(NC(=O)c2ccccc2)sc2c1CCC(=O)C2 | 13.3 µM | 7.32 µM | 8.65 µM | 3.65 µM | 2.59 µM | 5.49 µM | 2.3 µM | 0.385 µM | 1.92 µM | 2.45 µM | 1.17 µM | 0.78 µM | 1.59 µM | 0.906 µM | 
Cc1cc2ccccc2n1CC(=O)NCC(C)C | > 100 µM | > 100 µM | > 100 µM | > 100 µM | > 100 µM | > 100 µM | > 100 µM |  |  |  |  |  |  |  | > 100 µM
O=C(c1ccc2ccccc2c1)C1S(=O)(=O)OCCOS1(=O)=O | > 100 µM |  | > 100 µM |  |  | > 100 µM | > 100 µM |  |  |  |  |  |  |  | > 100 µM
OC(c1ccc(Cl)cc1)(c1ccc(Cl)cc1)C(O)(c1ccc(Cl)cc1)c1ccc(Cl)cc1 | > 100 µM |  |  |  |  |  |  | 3.25 µM |  |  |  |  |  |  | 
C=CCC(CNC(=O)OCc1ccccc1)O[Si](C)(C)C(C)(C)C (stereo not given) | > 100 µM | > 100 µM | 34.9 µM | 47.6 µM | 93.2 µM | 83.7 µM | > 100 µM |  |  |  |  |  |  |  | > 100 µM
CC(=O)O[C@H]1C#C/C=C\C#CC[C@@H]2C(=O)N(C(=O)OC(C)(C)C)[C@@H]12 | > 100 µM | > 88.7 µM | > 93 µM | 56.4 µM | 18.5 µM | > 100 µM | 28.8 µM |  |  |  |  |  |  |  | > 81.4 µM
Nc1nc(Cl)cc(N=Nc2ccccc2)n1 |  | > 100 µM | 46.9 µM | 97.2 µM | > 100 µM | > 100 µM | 97.2 µM |  |  |  |  |  |  |  | > 100 µM
CC(CCC(=O)O)[C@H]1CCC2[C@H]3C(CC[C@@]21C)[C@@]1(C)CCC(O)C[C@H]1C[C@@H]3O (stereo not given in full) | > 100 µM |  | > 100 µM | > 100 µM | > 100 µM | > 100 µM | > 100 µM |  |  |  |  |  |  |  | > 100 µM
CC(=O)NC1C(CO)O[C@@H]2OC(C)(C)O[C@H]12 (stereo not given in full) | > 100 µM | > 100 µM | > 100 µM |  | > 100 µM | > 100 µM | > 100 µM |  |  |  |  |  |  |  | > 100 µM
Cc1ccc(S(=O)(=O)n2cncc2CO)cc1 | > 100 µM | > 100 µM | > 100 µM | > 100 µM | > 100 µM | > 100 µM | > 100 µM |  |  |  |  |  |  |  | > 100 µM
CCCn1c(C23CC4CC(CC(C4)C2)C3)nc2ccc(Cl)cc2c1=O | > 100 µM | > 100 µM | > 100 µM | 29 µM | > 100 µM | > 100 µM | 47.9 µM |  |  |  |  |  |  |  | > 100 µM
CN(CCc1ccc(Cl)c(Cl)c1)[C@H]1CCCC[C@H]1N1CCCC1 | > 100 µM | > 100 µM | > 100 µM | > 100 µM |  | > 100 µM | > 100 µM |  |  |  |  |  |  |  | > 100 µM
c1ccc(CCN2CCCCCC2)nc1 | > 100 µM | > 100 µM | > 100 µM | > 100 µM |  |  | > 100 µM |  |  |  |  |  |  |  | > 100 µM
CNC(=O)CCC(NC(C)=O)C(=O)NC(Cc1ccc(NC(=O)CCCCC(C)=O)cc1)C(=O)NC(CCC(=O)NC)C(=O)NC (stereo not given) | > 100 µM | > 100 µM |  | > 100 µM | > 100 µM |  | > 100 µM |  |  |  |  |  |  |  | > 100 µM
CN(C)CCOC(=O)COc1ccc(Cl)cc1 | > 100 µM |  | > 100 µM | > 100 µM | > 100 µM | > 100 µM | > 100 µM |  |  |  |  |  |  |  | 
Clc1nc(-[n+]2ccc(-c3ccncc3)cc2)nc(Nc2ccccc2)c1Cl | > 100 µM | > 100 µM | > 100 µM | > 100 µM | > 100 µM | > 100 µM | > 100 µM |  |  |  |  |  |  |  | > 100 µM
CC(NC(=O)/C(=C/c1ccccc1O)NC(=O)c1ccccc1)C(=O)O (stereo not given) |  | 38.2 µM |  | 57.6 µM | 46.4 µM | > 100 µM | 33.2 µM |  |  |  |  |  |  |  | 50.2 µM
CCc1nnc(-n2c(C)nc3cc(Cl)ccc3c2=O)s1 | > 100 µM | > 100 µM |  | > 100 µM |  | > 100 µM | > 100 µM |  |  |  |  |  |  |  | > 100 µM
O=C1/C(=C/c2ccccc2)CCc2ccc(Cl)nc21 | 29.9 µM |  | 37.8 µM | 24.8 µM | 15.4 µM | 20.4 µM | 27.4 µM |  |  |  |  |  |  |  | 32.1 µM
O=C(c1ccccc1)c1c(C(F)(F)F)n([O-])c2ccccc2[n+]1=O | 2.27 µM | > 100 µM | 3.43 µM | 3.83 µM | 5.77 µM | 3.5 µM |  |  |  |  |  |  |  |  | 1.93 µM
O=C(N/N=C\c1cccc2ccccc12)Nc1ccc([N+](=O)[O-])cc1 | > 70.5 µM | > 100 µM | > 68.7 µM | > 42.6 µM | > 100 µM | > 100 µM | > 72.7 µM |  |  |  |  |  |  |  | > 66.4 µM
C/C(O)=C(\C=N\C(N)=S)C(=O)Nc1ccccc1C | > 100 µM | > 100 µM | > 100 µM | > 100 µM | > 100 µM | > 100 µM | > 100 µM |  |  |  |  |  |  |  | > 100 µM
CC(=O)N(CN1C(=O)CCC1C(=O)O)c1ccccc1 (stereo not given) | > 100 µM | > 100 µM | > 100 µM | > 100 µM | > 100 µM | > 100 µM | > 100 µM |  |  |  |  |  |  |  | > 100 µM
Cc1cc2ccccc2c[n+]1CC(O)C[n+]1cc2ccccc2cc1C | > 100 µM | > 100 µM | > 100 µM | > 100 µM | > 100 µM | > 100 µM | > 100 µM |  |  |  |  |  |  |  | > 100 µM
CC(C)CCC[C@@H](C)[C@H]1CC[C@H]2[C@@H]3CC=C4C[C@@H](OC(=O)c5cccc6c(=O)c7ccccc7[nH]c56)CC[C@]4(C)[C@H]3CC[C@]12C | > 75 µM | > 75 µM | > 75 µM | > 75 µM | > 75 µM | > 75 µM | > 75 µM |  |  |  |  |  |  |  | > 75 µM
Cc1c2c3cc(O)ccc3nc-2n(C)c2ccccc12 | 5.94 µM | 8.21 µM |  | 2.86 µM | 4.98 µM | 8.05 µM | 10.3 µM |  |  |  |  |  |  |  | 8.52 µM
